{"source": "patent US20240365781A1", "about": "“SYNERGISTICALLY EFFECTIVE HERBICIDE COMPOSITION COMPRISING PELARGONIC ACID AND FLAZASULFURON” (Belchim Crop Protection NV, priority 2017, published 2024)", "assay_in_all_cases": "post-emergence field trial under rows of vines, 150-200 L water/ha (Examples 6-9)", "type_in_all_cases": "in vivo", "key": {"Epilobium tetragonum": {"tested_on": "Epilobium tetragonum", "conditions": "flazasulfuron 40 g/ha", "source_text": "(§1) The expected activity of a given combination of two or three herbicides can be calculated as follows according to a calculation method by Colby (cf. COLBY, S. R.: “Calculating synergistic and antagonistic responses of herbicide combinations”, • Weeds 15, pages 20-22, 1967): • If X=% damage by herbicide (A) at an application rate of m g/ha, • Y=% damage by herbicide (B) at an application rate of n g/ha, • E=the expected damage by herbicides (A) and (B) at application rates of m and n […] and, • then for a combination:\n(§2) Individual compositions comprising pelargonic acid or flazasulfuron are compared with a herbicide composition according to the invention comprising pelargonic acid and flazasulfuron.\n(§3) Herbicidal activity was determined by performing a post-emergence test. […] The corresponding mixture was in the form of a spray solution. Besides, spray solutions of individual compositions comprising pelargonic acid or flazasulfuron were used.\n(§4) The spray solution was applied on plants of unwanted vegetation present on fields where perennial crops were grown.\n(§5) After 5 to 88 days after application of the spray solution, the degree of damage to the unwanted vegetation is rated in % of plants of unwanted vegetation that were killed. Tests were performed on test fields (field trials)."}, "Erigeron sumatrensis": {"tested_on": "Erigeron sumatrensis", "conditions": "flazasulfuron 40 g/ha", "source_text": "as §1, §2, §3, §4, §5"}, "Geranium molle": {"tested_on": "Geranium molle", "conditions": "15 d, flazasulfuron 40 g/ha", "source_text": "as §1, §2, §3, §4, §5"}, "Oxalis latifolia": {"tested_on": "Oxalis latifolia", "conditions": "flazasulfuron 40 g/ha", "source_text": "as §1, §2, §3, §4, §5"}, "Senecio vulgaris": {"tested_on": "Senecio vulgaris", "conditions": "flazasulfuron 40 g/ha", "source_text": "as §1, §2, §3, §4, §5"}, "Sonchus oleracea": {"tested_on": "Sonchus oleracea", "conditions": "flazasulfuron 40 g/ha", "source_text": "as §1, §2, §3, §4, §5"}, "Veronica persicae": {"tested_on": "Veronica persicae", "conditions": "flazasulfuron 40 g/ha", "source_text": "as §1, §2, §3, §4, §5"}, "[1]": {"conditions": "14 d, pelargonic acid 10880 g/ha"}, "[2]": {"conditions": "27 d, pelargonic acid 6800 g/ha"}, "[3]": {"conditions": "27 d, pelargonic acid 8160 g/ha"}, "[4]": {"conditions": "27 d, pelargonic acid 10880 g/ha"}, "[5]": {"conditions": "56 d, pelargonic acid 6800 g/ha"}, "[6]": {"conditions": "56 d, pelargonic acid 8160 g/ha"}, "[7]": {"conditions": "56 d, pelargonic acid 10880 g/ha"}, "[8]": {"conditions": "7 d, pelargonic acid 10880 g/ha"}, "[9]": {"conditions": "14 d, pelargonic acid 5440 g/ha"}, "[10]": {"conditions": "14 d, pelargonic acid 6800 g/ha"}, "[11]": {"conditions": "14 d, pelargonic acid 8160 g/ha"}, "[12]": {"conditions": "27 d, pelargonic acid 5440 g/ha"}, "[13]": {"conditions": "56 d, pelargonic acid 5440 g/ha"}}, "data": [{"smiles": "CCCCCCCCC(=O)O", "note": "[Pelargonic acid, nonanoic acid]", "values": [{"measurement": "herbicidal effect", "setting": "Epilobium tetragonum; [1]", "value": 13, "unit": "%"}, {"measurement": "herbicidal effect", "setting": "Epilobium tetragonum; [2]", "value": 0, "unit": "%"}, {"measurement": "herbicidal effect", "setting": "Epilobium tetragonum; [3]", "value": 0, "unit": "%"}, {"measurement": "herbicidal effect", "setting": "Epilobium tetragonum; [4]", "value": 0, "unit": "%"}, {"measurement": "herbicidal effect", "setting": "Epilobium tetragonum; [5]", "value": 0, "unit": "%"}, {"measurement": "herbicidal effect", "setting": "Epilobium tetragonum; [6]", "value": 0, "unit": "%"}, {"measurement": "herbicidal effect", "setting": "Epilobium tetragonum; [7]", "value": 0, "unit": "%"}, {"measurement": "herbicidal effect", "setting": "Erigeron sumatrensis; 5 d, pelargonic acid 5440 g/ha", "value": 55, "unit": "%"}, {"measurement": "herbicidal effect", "setting": "Erigeron sumatrensis; 5 d, pelargonic acid 8160 g/ha", "value": 83, "unit": "%"}, {"measurement": "herbicidal effect", "setting": "Erigeron sumatrensis; 15 d, pelargonic acid 5440 g/ha", "value": 35, "unit": "%"}, {"measurement": "herbicidal effect", "setting": "Erigeron sumatrensis; 15 d, pelargonic acid 6800 g/ha", "value": 50, "unit": "%"}, {"measurement": "herbicidal effect", "setting": "Erigeron sumatrensis; 15 d, pelargonic acid 8160 g/ha", "value": 61, "unit": "%"}, {"measurement": "herbicidal effect", "setting": "Geranium molle; pelargonic acid 5440 g/ha", "value": 0, "unit": "%"}, {"measurement": "herbicidal effect", "setting": "Geranium molle; pelargonic acid 6800 g/ha", "value": 3, "unit": "%"}, {"measurement": "herbicidal effect", "setting": "Geranium molle; pelargonic acid 8160 g/ha", "value": 0, "unit": "%"}, {"measurement": "herbicidal effect", "setting": "Geranium molle; pelargonic acid 10880 g/ha", "value": 0, "unit": "%"}, {"measurement": "herbicidal effect", "setting": "Oxalis latifolia; 7 d, pelargonic acid 6800 g/ha", "value": 54, "unit": "%"}, {"measurement": "herbicidal effect", "setting": "Oxalis latifolia; 7 d, pelargonic acid 8160 g/ha", "value": 58, "unit": "%"}, {"measurement": "herbicidal effect", "setting": "Oxalis latifolia; [8]", "value": 73, "unit": "%"}, {"measurement": "herbicidal effect", "setting": "Oxalis latifolia; [9]", "value": 76, "unit": "%"}, {"measurement": "herbicidal effect", "setting": "Oxalis latifolia; [10]", "value": 85, "unit": "%"}, {"measurement": "herbicidal effect", "setting": "Oxalis latifolia; [11]", "value": 89, "unit": "%"}, {"measurement": "herbicidal effect", "setting": "Oxalis latifolia; [1]", "value": 96, "unit": "%"}, {"measurement": "herbicidal effect", "setting": "Oxalis latifolia; 28 d, pelargonic acid 6800 g/ha", "value": 68, "unit": "%"}, {"measurement": "herbicidal effect", "setting": "Senecio vulgaris; 7 d, pelargonic acid 5440 g/ha", "value": 83, "unit": "%"}, {"measurement": "herbicidal effect", "setting": "Senecio vulgaris; 7 d, pelargonic acid 6800 g/ha", "value": 89, "unit": "%"}, {"measurement": "herbicidal effect", "setting": "Senecio vulgaris; [9]", "value": 80, "unit": "%"}, {"measurement": "herbicidal effect", "setting": "Senecio vulgaris; [10]", "value": 89, "unit": "%"}, {"measurement": "herbicidal effect", "setting": "Senecio vulgaris; [11]", "value": 98, "unit": "%"}, {"measurement": "herbicidal effect", "setting": "Senecio vulgaris; 31 d, pelargonic acid 5440 g/ha", "value": 60, "unit": "%"}, {"measurement": "herbicidal effect", "setting": "Senecio vulgaris; 31 d, pelargonic acid 6800 g/ha", "value": 60, "unit": "%"}, {"measurement": "herbicidal effect", "setting": "Senecio vulgaris; 31 d, pelargonic acid 8160 g/ha", "value": 91, "unit": "%"}, {"measurement": "herbicidal effect", "setting": "Senecio vulgaris; 31 d, pelargonic acid 10880 g/ha", "value": 90, "unit": "%"}, {"measurement": "herbicidal effect", "setting": "Senecio vulgaris; 58 d, pelargonic acid 5440 g/ha", "value": 0, "unit": "%"}, {"measurement": "herbicidal effect", "setting": "Senecio vulgaris; 58 d, pelargonic acid 8160 g/ha", "value": 10, "unit": "%"}, {"measurement": "herbicidal effect", "setting": "Senecio vulgaris; 58 d, pelargonic acid 10880 g/ha", "value": 15, "unit": "%"}, {"measurement": "herbicidal effect", "setting": "Sonchus oleracea; [9]", "value": 25, "unit": "%"}, {"measurement": "herbicidal effect", "setting": "Sonchus oleracea; [10]", "value": 45, "unit": "%"}, {"measurement": "herbicidal effect", "setting": "Sonchus oleracea; [11]", "value": 25, "unit": "%"}, {"measurement": "herbicidal effect", "setting": "Sonchus oleracea; [1]", "value": 28, "unit": "%"}, {"measurement": "herbicidal effect", "setting": "Sonchus oleracea; [12]", "value": 0, "unit": "%"}, {"measurement": "herbicidal effect", "setting": "Sonchus oleracea; [2]", "value": 13, "unit": "%"}, {"measurement": "herbicidal effect", "setting": "Sonchus oleracea; [3]", "value": 0, "unit": "%"}, {"measurement": "herbicidal effect", "setting": "Sonchus oleracea; [4]", "value": 0, "unit": "%"}, {"measurement": "herbicidal effect", "setting": "Sonchus oleracea; [13]", "value": 0, "unit": "%"}, {"measurement": "herbicidal effect", "setting": "Sonchus oleracea; [5]", "value": 0, "unit": "%"}, {"measurement": "herbicidal effect", "setting": "Sonchus oleracea; [6]", "value": 0, "unit": "%"}, {"measurement": "herbicidal effect", "setting": "Sonchus oleracea; [7]", "value": 0, "unit": "%"}, {"measurement": "herbicidal effect", "setting": "Veronica persicae; 7 d, pelargonic acid 5440 g/ha", "value": 43, "unit": "%"}, {"measurement": "herbicidal effect", "setting": "Veronica persicae; 7 d, pelargonic acid 6800 g/ha", "value": 55, "unit": "%"}, {"measurement": "herbicidal effect", "setting": "Veronica persicae; 7 d, pelargonic acid 8160 g/ha", "value": 50, "unit": "%"}, {"measurement": "herbicidal effect", "setting": "Veronica persicae; [8]", "value": 45, "unit": "%"}, {"measurement": "herbicidal effect", "setting": "Veronica persicae; [9]", "value": 10, "unit": "%"}, {"measurement": "herbicidal effect", "setting": "Veronica persicae; [10]", "value": 45, "unit": "%"}, {"measurement": "herbicidal effect", "setting": "Veronica persicae; [11]", "value": 30, "unit": "%"}, {"measurement": "herbicidal effect", "setting": "Veronica persicae; [1]", "value": 30, "unit": "%"}, {"measurement": "herbicidal effect", "setting": "Veronica persicae; [12]", "value": 0, "unit": "%"}, {"measurement": "herbicidal effect", "setting": "Veronica persicae; [2]", "value": 20, "unit": "%"}, {"measurement": "herbicidal effect", "setting": "Veronica persicae; [3]", "value": 0, "unit": "%"}, {"measurement": "herbicidal effect", "setting": "Veronica persicae; [4]", "value": 0, "unit": "%"}, {"measurement": "herbicidal effect", "setting": "Veronica persicae; [13]", "value": 0, "unit": "%"}, {"measurement": "herbicidal effect", "setting": "Veronica persicae; [7]", "value": 0, "unit": "%"}]}]}
